Reference: patent US11618770B2, “MUC1-derived peptide, and pharmaceutical composition for treatment or prevention of cancer, immunity-inducing agent and method for manufacturing antigen presenting cell using same” (NEC CORPORATION, priority 2015, dated 2023)
Ends that are not written are not given here.

Tests used:
[1] = target: T1, HLA-A*02:01 molecule (Homo sapiens, UniProt P04439, D140Y/D185E/D98H/E176V/E277Q/G131W/G231S/I119V/I121R/I166T/I218V/L300P/L318F/N151K/N90K/P208A/P217A/Q86G/Q94H/R138H/R169H/T345S); experiment: Experiment of binding peptide to HLA-A*02:01 molecule (T2 cells, antibody BB7.2, flow cytometer); details: for Kd: given as negative numbers (log of Kd value), T2 cells, 37° C. 4 hours
T1 construct: a cell line T2 (purchased from ATCC) expressing the HLA-A*02:01 molecule; host or cells: T2 cells
Description: Experiment of Binding Peptide to HLA-A*02:01 Molecule
The ability of each of the peptides to bind to an HLA-A*02:01 molecule, which is an HLA-A*02:01 gene product, was measured using a cell line T2 (purchased from ATCC) expressing the HLA-A*02:01 molecule.
The T2 cells and purified β2m were added to a series of serial dilutions of the peptide whose binding ability would be measured, and then incubation was carried out at 37° C. for 4 hours. The HLA-A*02:01 molecule that had increased in an expression amount in a peptide-concentration-dependent manner up to this point was stained using a fluorescently labeled monoclonal antibody BB7.2, which is specific to an association type.
(§1) Thereafter, the amount of fluorescence per cell was measured using a flow cytometer, and a dissociation constant Kd value was calculated using a method that was reported in a paper (Udaka et al., Immunogenetics, 51, 816-828, 2000) by the inventors of the present invention.

[2] = target: T2, HLA-A*02:06 molecule (Homo sapiens, UniProt P04439, D140Y/D185E/D98H/E176V/E277Q/F33Y/G131W/G231S/I119V/I121R/I166T/I218V/L300P/L318F/N151K/N90K/P208A/P217A/Q86G/Q94H/R138H/R169H/T345S); experiment: Experiment of binding peptide to HLA-A*02:06 molecule (RA2.6 cells, antibody BB7.2, flow cytometer); details: for Kd: given as negative numbers (log of Kd value), RA2.6 cells
T2 construct: expressed in transfected cells; host or cells: RA2.6 cells (mouse TAP-deficient RMAS cells carrying HLA-A*02:06 cDNA)
Description: Experiment of Binding Peptide to HLA-A*02:06 Molecule
The ability of each of the peptides to bind to an HLA-A*02:06 molecule, which is an HLA-A*02:06 gene product, was measured using RA2.6 cells (cell line that had been newly produced in Kochi University) produced by introducing the cDNA of the HLA-A*02:06 gene into a mouse TAP (transporter associated with antigen processing)-deficient cell line RMAS.
First, RA2.6 cells were cultured at 26° C. overnight.
Thereafter, the cells were cultured at 35° C. for 4 hours. […] A fluorescently labeled monoclonal antibody BB7.2, which specifically recognizes a peptide-binding HLA-A*02:06 molecule, was added thereto, incubation was carried out on ice for 20 minutes, and thus the cells were stained.
as §1

[3] = target: HLA-A*24:02 molecule (Homo sapiens, UniProt P04439, D101N/D140Y/D185E/E176V/E190D/F33S/G103R/G107R/I119L/I121M/I306V/K335N/L105A/L180Q/L300P/N151K/N90K/Q86E/Q94H/R106L/R138H/R89G/T104I/T345S/V100E/W191G/Y123F); experiment: Experiment of binding peptide to HLA-A*24:02 molecule (C1R-A24 cells, antibody 17A12, FACS); details: for Kd: given as negative numbers (log of Kd value), C1R-A24 cells, on ice 4 hours
Description: Experiment of Binding Peptide to HLA-A*24:02 Molecule
The ability of each of the peptides to bind to an HLA-A*24:02 molecule, which is an HLA-A*24:02 gene product, was measured using C1R-A24 cells expressing the HLA-A*24:02 molecule (cells prepared by Professor Masafumi TAKIGUCHI, Kumamoto University being supplied with permission by Assistant Professor Masaki YASUKAWA, Ehime University).
First, C1R-A24 cells were exposed to acidic conditions at a pH of 3.3 for 30 seconds, and thus an endogenous peptide that originally binds to the HLA-A*24:02 molecule, and a light chain β2m, which is associated with HLA class-I molecules in common, were dissociated and removed. After neutralization, a purified β2m was added to C1R-A24 cells, and the obtained product was added to a series of dilutions of the peptide and incubated on ice for 4 hours. Staining was carried out using a fluorescently labeled monoclonal antibody 17A12, which recognizes association (MHC-pep) of the three members, that is, a HLA-A*24:02 molecule, a peptide, and β2m, which had reassociated during the incubation.
Thereafter, the MHC-pep count per C1R-A24 cell (proportional to the intensity of fluorescence of the above-mentioned fluorescent antibody) was quantitatively measured using a fluorescence-activated cell sorter FACScan (Becton-Dickinson). A binding-dissociation constant Kd value between the HLA-A*24:02 molecule and the peptide was calculated from the average intensity of fluorescence per cell using a method that was reported in a paper (Udaka et al., Immunogenetics, 51, 816-828, 2000) by the inventors of the present invention.

[4] = system: CD8T cells; experiment: Peptide immunity induction testing (peptide-stimulated dendritic cells cocultured with CD8T cells, IFN-γ ELISA); format: cell-based, human
Description: Peptide Immunity Induction Testing
Of the peripheral blood monocytes obtained through pheresis from a patient (0) that had undergone a dendritic cell/CTL therapy against MUC1, a cell fraction that adhered to a culture flask was cultured in an AIM-CM culture medium (manufactured by Gibco) at 37° C. for 10 days. During the culture, 15 μl of IL-4 and 30 μl of a granulocyte monocyte colony-stimulating factor (GM-CSF) added to the culture medium on Day 0 and Day 3, and 15 μl of IL-4, 30 μl of GM-CSF, and 75 μl of a tumor necrosis factor (TFN)-α were added thereto on Day 5.
Induced dendritic cells were collected in a new AIM-CM culture medium, and the peptide of the present invention (Sequence ID Nos. 1 to 12) was added thereto to a concentration of 20 μg/ml. […]
CD8T cells were isolated from the culture medium using a CD8 negative selection kit (manufactured by Miltenyi), and the number of cells was counted. […]
The culture supernatant of the coculture of the T cells and the dendritic cells pulsed with the above-mentioned peptides on Day 7 was diluted to four steps, that is, ×1, ×5, ×25, and ×125, and the dilution step within a measurement limit was identified using Human IFN-γ ELISA MAX Deluxe Set (manufactured by BioLegend). Thereafter, at the identified dilution step, each sample was measured three times. […]

Row | Sequence | Kd [1] [µM] | Kd [2] [µM] | Kd [3] [µM] | Binding to HLA-A*02:01 molecule (in words) [1] | Binding to HLA-A*02:06 molecule (in words) [2] | Binding to HLA-A*24:02 molecule (in words) [3] | Immunogenicity (in words) [4]
1 | AASRYNLTI [Seq. ID No. 5, AASRYNLTI] | 15.4 | 150 | 0.711 |  |  |  | 
2 | AFREGTINV [Seq. ID No. 4, AFREGTINV] | > 1000 | > 1000 | 1.47 |  |  |  | 
3 | FLGLSNIKF [Seq. ID No. 1, FLGLSNIKF] | 4.07 | 41.1 | 0.0845 |  |  |  | 
4 | FSAQSGAGV [Seq. ID No. 12, FSAQSGAGV] | 18.2 | 2.18 | > 1000 |  |  |  | 
5 | GQDVTSVPV [Seq. ID No. 11, GQDVTSVPV] | 0.366 | 0.448 | > 1000 |  |  |  | 
6 | GVPGWGIAL [Seq. ID No. 3, GVPGWGIAL] | 28.3 | 1.73 | 1.18 |  |  |  | 
7 | HHSDTPTTL [Seq. ID No. 7, HHSDTPTTL] | > 1000 | > 1000 | 1.36 |  |  |  | 
8 | LQRDISEMF [Seq. ID No. 6, LQRDISEMF] | > 1000 | 54.9 | 0.226 |  |  |  | 
9 | SFFFLSFHI [Seq. ID No. 8, SFFFLSFHI] | > 100 | 105 | 0.0861 |  |  |  | 
10 | STGVSFFFL [Seq. ID No. 10, STGVSFFFL] | 7.55 | 6.19 | 6.74 | strongly binds | strongly binds | strongly binds | high immunogenicity
11 | SVPVTRPAL [Seq. ID No. 2, SVPVTRPAL] | 125 | 2.36 | 0.0573 |  |  |  | 
12 | TLAFREGTI [Seq. ID No. 9, TLAFREGTI] | > 1000 | 820 | 1.06 |  |  |  | 
